Assay results taken from US12570657B2, “Mesylate salts of heterocyclic cytokinins, compositions containing these derivatives and use thereof” (UNIVERZITA PALACKEHO V OLOMOUCI, priority 2020, dated 2026).

Experiments:
[1] = system: MCF-7 (breast adenocarcinoma); assay: In vitro cytotoxicity, Calcein AM assay, MCF7; type: cell-based; conditions: 3-day Calcein-AM assay
Procedure, shortened: (§1)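 Read-out: green fluorescence of calcein formed by hydrolysis of Calcein AM (1 μg/ml final, 1 h) in living cells. Cells (~10,000/well) got compounds 12 h after seeding and were exposed 72 h; DMSO alone as control.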

[2] = system: G361 (malignant melanoma); assay: In vitro cytotoxicity, Calcein AM assay, G-361; type: cell-based; conditions: Homo sapiens, 72 h, 3-day Calcein-AM assay
Description: Because toxic compounds adversely affect cell metabolic processes, many standard cytotoxicity assays are based on measuring the rate of metabolism of various artificial substrates. The resulting product is then quantified, for example, by spectrometry. Assays can be easily modified for use in 96-well plates, A microtiter assay based on the quantification of Calcein AM metabolism was used to evaluate the cytotoxicity of cytokinins, for example meta-topolin, ortho-topolin, kinetin, BAP or its mesylate salts, but also a number of other cytokinin mesylate derivatives according to the invention. The test is widely used in drug screening programs and in chemosensitivity testing. In living cells, Calcein AM is enzymatically hydrolyzed and the accumulation of the resulting calcein is manifested by green fluorescence. The following cell lines—RPMI 8226 (multiple myeloma), CEM (T-lymphoblastic leukemia), K562 (chronic myeloid leukemia), HL-60 (promyelocytic, leukemia), MCF-7 (breast adenocarcinoma), HeLa (cervical cancer), G361 (malignant melanoma), HOS (human osteosarcoma) and BJ (human foreskin fibroblasts)—were obtained from the American Type Culture Collection (Manassas, VA, USA). These cells were maintained in standard DMEM or RPMI medium (Sigma, MO, USA) supplemented with heat-inactivated fetal bovine serum (10%) with 2 mM L-glutamine and penicillin-streptomycin (1%) under standard cell culture conditions (37° C., 5% CO2 in a humid environment) and subcultured two or three times a week using a standard trypsinization procedure. Approximately 10,000 cells in 80 μl of medium were seeded in a 96-well microtiter plate. After 12 hours of incubation, the compounds to be tested were added in 20 μl aliquots. Control cultures were treated with DMSO alone. […] Serial, 3-fold dilutions (six in total, peak concentrations in 166 μM incubations) of each compound were tested. After 72 hours of incubation, Calcein AM solution (Molecular Probes) was added to a final concentration of 1 μg/ml and the cells were incubated for another hour. Free calcein fluorescence was then quantified using a Fluoroscan Ascent fluorometer (Microsystems), and the percentage of surviving cells in each well was calculated by dividing the OD obtained from each cell by the exposed cells by the mean OD obtained from control wells×100%, Finally, IC50 values (concentration causing a 50% decrease in cellular esterase activity) were calculated for each compound generated from dose-response curves (Krys̆tof et al., 2005, Bioorg. Med. Chem. Lett. 12, 3283-3286). The IC50 values reported here are averages obtained from at least three independent experiments, where the individual replication values fell within 20% of the average. Growth inhibition was calculated using the following equation: […](mean FDwell exposed to drug−mean FDblank)/(mean FDcontrol well−mean FDblank)×100%.
Cytoxicity of compounds was tested on panel of cell lines of different histogenetic and species origin.

[3] = system: CEM (T-lymphoblastic leukemia); assay: In vitro cytotoxicity, Calcein AM assay, CEM; type: cell-based; conditions: 3-day Calcein-AM assay
Procedure, shortened: as §1

[4] = system: HL-60 (promyelocytic, leukemia); assay: In vitro cytotoxicity, Calcein AM assay, HL60; type: cell-based; conditions: Homo sapiens, HL-60, 72 h, 3-day Calcein-AM assay
Procedure, shortened: as §1

[5] = system: keratinocytes HaCaT; assay: Cytotoxicity for non-cancer cells, resazurine reduction assay, HaCaT
Description: It is used for viability testing of both bacterial and eukaryotic cells. […] Cultivation medium was DMEM with 10% FBS. Before the experiment, the cells were subcultured for 2 weeks. For the cytotoxicity evaluation, the cells were trypsinized and pipetted into 96 well plates (5000 cells per well in 80 microliters). After 24 hours, 5× concentrated solutions of the tested compounds in the medium were added. […] IC50 values were calculated from dose response curves using drc library for R programming environment.

[6] = system: Spring barley (variety Francin); assay: Field trial: grain yield and productive tillers of spring barley after foliar spray; type: in vivo; conditions: for Grain yield: foliar spray 300 l/ha, BBCH 31-33; for Length of plants / Medium tillers (number) / Number of spikes per square meter / SUM of tillers / Strong tillers (number) / Weak tillers (number) / Grain yield (t/ha) at 14% humidity / Grain yield, % compared to control / Length of plants, % compared to control / Medium tillers, % compared to control / Number of spikes per square meter, % compared to control / SUM of tillers, % compared to control / Strong tillers, % compared to control / Weak tillers, % compared to control: 5 uMol; for Length of plants / Medium tillers (number) / Number of spikes per square meter / SUM of tillers / Strong tillers (number) / Weak tillers (number) / Grain yield, % compared to control / Length of plants, % compared to control / Medium tillers, % compared to control / Number of spikes per square meter, % compared to control / SUM of tillers, % compared to control / Strong tillers, % compared to control / Weak tillers, % compared to control: application BBCH 31-33; for Grain yield (t/ha) at 14% humidity: application BBCH 31-33, spring barley; for Grain yield, % compared to control / Length of plants, % compared to control / Medium tillers, % compared to control / Number of spikes per square meter, % compared to control / SUM of tillers, % compared to control / Strong tillers, % compared to control / Weak tillers, % compared to control: untreated control = 100
Description: Spring barley (variety Francin) was treated in 2019 at the locality in Olomouc, sprayed with substances—marked BAP (benzylaminopurine), meta-topolin mesylate and BAP mesylate. The seed was 3.5 million germinating seeds, the experiment was established in 5 randomized replicates for each variant, the control was an untreated variant. The experiment was performed according to the GEP (Good Experimental Practice) methodology, the size of individual plots was 10 m^2. The application of the substances was carried out at a rate of 300 l/ha, in the growth phase BBCH 31-33 (beginning of peeling).

[7] = resazurin, 72 hour treatment, HaCaT

| SMILES | IC50 ([1]; Homo sapiens, MCF7, 72 h) | IC50 [2] | IC50 ([3]; 72 h) | IC50 [4] | Cytotoxicity for Fibroblasts (GI20) HaCaT [5, 7] | Grain yield [6] | Length of plants [6] | Medium tillers (number) [6] | Number of spikes per square meter [6] | SUM of tillers [6] | Strong tillers (number) [6] | Weak tillers (number) [6] | Grain yield (t/ha) at 14% humidity [6] | Grain yield, % compared to control [6] | Length of plants, % compared to control [6] | Medium tillers, % compared to control [6] | Number of spikes per square meter, % compared to control [6] | SUM of tillers, % compared to control [6] | Strong tillers, % compared to control [6] | Weak tillers, % compared to control [6] | other results |
| --- | --- | --- | --- | --- | --- | --- | --- | --- | --- | --- | --- | --- | --- | --- | --- | --- | --- | --- | --- | --- | --- |
| Oc1ccccc1CNc1ncnc2nc[nH]c12 [ortho-topolin (oT), 6-(2-hydroxybenzylamino)purine] | > 167 µM | 103 µM | 69.2 µM | 78 µM | >100 µM | – | – | – | – | – | – | – | – | – | – | – | – | – | – | – | – |
| Oc1cccc(CNc2ncnc3nc[nH]c23)c1 [meta-topolin (mT), 6-(3-hydroxybenzylamino)purine] | > 167 µM | > 167 µM | 90.1 µM | 79.2 µM | >100 µM | – | – | – | – | – | – | – | – | – | – | – | – | – | – | – | – |
| CS(=O)(=O)O.Oc1cccc(CNc2ncnc3nc[nH]c23)c1 [mT mesylate, 6-(3-hydroxybenzylamino)purine mesylate] | – | – | – | – | >100 µM | 108.03 % at control | – | – | – | – | – | – | – | – | – | – | – | – | – | – | IC50 ([3]; mesylate): > 167 µM |
| CS(=O)(=O)O.c1ccc(CNc2ncnc3nc[nH]c23)cc1 [BAP mesylate, 6-benzylaminopurine mesylate] | – | – | – | – | >100 µM | 104.34 % at control | 83.2 cm | 1.35 | 758.4 | 6.35 | 2.75 | 2.25 | 7.74 t/ha | 104.34% | 100.48% | 64.29% | 112.06% | 110.43% | 152.78% | 121.62% | IC50 ([1]; mesylate): > 167 µM |
| c1ccc(CNc2ncnc3nc[nH]c23)cc1 [BAP, 6-benzylaminopurine] | 166 µM | – | > 167 µM | > 167 µM | – | did not affect grain yield | 82.5 cm | 1.7 | 752 | 6.6 | 2.8 | 2.1 | 7.42 t/ha | 100.13% | 99.64% | 80.95% | 111.11% | 114.78% | 155.56% | 113.51% | Cytotoxicity for Fibroblasts (GI20) HaCaT ([5]; human, 72 h): >100 µM |
| COc1cccc(CNc2ncnc3nc[nH]c23)c1 [3MeOBAP, 6-(3-methoxybenzylamino)purine] | > 167 µM | 125 µM | > 167 µM | > 167 µM | – | – | – | – | – | – | – | – | – | – | – | – | – | – | – | – | – |
